Legend:
[1] = In vivo pharmacokinetic experiment in mice; settings: C57 mice
Procedure: Healthy male C57 mice were randomly divided into groups with 3 mice in each group, and the test compounds were administrated intragastrically or by intravenous injection. See Table 6 below for specific arrangements:
(§1) Each test compound was dissolved in physiological saline to prepare a certain concentration of solution for administration.
(§2) One day before administration, the mice were fasted and allowed to drink freely for 12-14 h. The mice were fed 4 h after administration.
0.030 mL of blood was took from each animal each time through the orbit, and anticoagulated with EDTAK2. The collection time points were as follows: in PO group, 5 min, 15 min, 30 min, 1 h, 2 h, 4 h, 6 h, 8 h, 24 h after administration of test substance; in IV group, 2 min, 5 min, 15 min, 30 min, 1 h, 2 h, 4 h, 6 h, 8 h, 24 h after administration of test substance. After blood samples were collected, they were placed on ice and centrifuged to separate the plasma within 30 minutes (centrifugation conditions: 5000 rpm, 10 minutes, 4° C.). The sample were stored at −80° C. before analysis.

[2] = Distribution in mouse brain tissue; format: in vivo, C57 mice
Procedure: Healthy male C57 mice were randomly divided into groups with 3 mice in each group, and the test compound was administrated intragastrically. See Table 10 below for specific arrangements:
as §1, §2
After the animals were bled, the brain tissue was collected. After washing, 50% ice methanol was added for homogenate at 1:4 (m/v). The collection time points was 10 min, 15 min, 30 min, 1 h, 2 h after administration of the test substance; 30.0 μL of tissue sample was taken (the sample was taken out from the refrigerator at −80° C., vortexed for 30 seconds after natural melting at room temperature) and added into a 1.5 mL centrifuge tube. 300.0 μL internal standard solution (30 ng/mL […] acetonitrile solution) was added, the mixture was vortex for 60 seconds and then centrifuged for 3 minutes (centrifugal force was 12000 rpm); 75 μL of the supernatant was taken and transferred to 96-well injection plate loaded with equal volume of water, shaken and mixed well, and subjected to LC-MS/MS analysis, wherein injection volume was 10 μL.

[3] = male, mouse, iv, 5 mg/kg i.v., plasma
[4] = male, mouse, po, 20 mg/kg p.o., plasma

For Cl.N[C@]1(c2ccc(C(F)(F)F)cc2)CCC[C@H](O)C1=O [Compound 51, (2S,6S)-2-amino-6-hydroxy-2-(4-(trifluoromethyl)phenyl)cyclohexane-1-one hydrochloride], the AUC0-t ([1]; 5 mg/kg i.v., plasma) was 6471 ngh/mL, the “AUC0-∞” value ([1]; 5 mg/kg i.v., plasma) was 6567 ngh/mL and the F ([1]; 20 mg/kg p.o. vs 5 mg/kg i.v.) was 68.0%. For the same molecule, the AUC0-t ([1]; 20 mg/kg p.o., plasma) was 17539 ngh/mL, the “AUC0-∞” value ([1]; 20 mg/kg p.o., plasma) was 17877 ngh/mL and the MRT [1, 3] was 1.23 h. It also gave a half-life [1, 3] of 1.79 h, a clearance ([1]; male, mouse, plasma, iv, 5 mg/kg i.v.) of 13.5 mL/min/kg and a Vd ([1]; male, mouse, plasma, iv, 5 mg/kg i.v., read-out: Vss) of 0.98 L/kg. It also gave a Cmax [1, 4] of 7520 ng/mL, an MRT [1, 4] of 3.59 h and a Tmax [1, 4] of 5 min. The half-life [1, 4] was 4.09 h, the “AUC0-∞” value ([2]; C57 mouse brain tissue, 20 mg/kg p.o.) was 46324 ng·h/g and the concentration at 15 min ([2]; male, brain, po, C57 mouse, 10 mg/kg p.o., 15 min) was 5090 ng/g. For the same molecule, the concentration at 10 min ([2]; male, brain, po, C57 mouse, 20 mg/kg p.o. (intragastrically), 10 min) was 23500 ng/g and the half-life ([2]; male, po, C57 mouse brain tissue, 20 mg/kg p.o.) was 1.36 h.
